Key:
[1] = system: corn; assay: Test B pre/postemergence corn; type: in vivo, Zea mays
In short: (§1)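 Test chemicals in a non-phytotoxic solvent mixture with surfactant were sprayed preemergence onto planted seeds and postemergence onto plants 2 to 18 cm tall (1- to 4-leaf stage). After twelve to sixteen days in a greenhouse, injury was visually rated against untreated controls from 0 (no effect) to 10 (complete control).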

[2] = system: rape; assay: Test B pre/postemergence rape; type: in vivo, Brassica napus
In short: as §1

[3] = system: purple nutsedge; assay: Test B pre/postemergence purple nutsedge; type: in vivo, Cyperus rotundus
In short: as §1

[4] = system: giant foxtail; assay: Test B pre/postemergence giant foxtail; type: in vivo, Setaria faberii
In short: as §1

[5] = system: bedstraw; assay: Test B pre/postemergence bedstraw; type: in vivo, Galium aparine
In short: as §1

[6] = system: soybean; assay: Test B pre/postemergence soybean; type: in vivo, Glycine max
In short: as §1

[7] = system: duck salad; assay: Test B flood test duck salad; type: in vivo, Heteranthera limosa
In short: (§2)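 Each value is a visual injury score relative to controls, with 10 meaning complete control and 0 no effect. Evaluation took place twelve to sixteen days after the 2-leaf-stage plants were treated and kept in the greenhouse.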

[8] = system: pigweed; assay: Test B pre/postemergence pigweed; type: in vivo, Amaranthus retroflexus
In short: as §1

[9] = system: surinam grass; assay: Test B pre/postemergence surinam grass; type: in vivo, Brachiaria decumbens
In short: as §1

[10] = system: bamyardgrass; assay: Test B flood test barnyardgrass; type: in vivo, Echinochloa crus-galli
In short: as §2

[11] = system: smallflower flatsedge; assay: Test B flood test smallflower flatsedge; type: in vivo, Cyperus difformis
In short: as §2

[12] = system: velvetleaf; assay: Test B pre/postemergence velvetleaf; type: in vivo, Abutilon theophrasti
In short: as §1

[13] = system: morningglory; assay: Test B pre/postemergence morningglory; type: in vivo, Ipomoea hederacea
In short: as §1

[14] = system: rice; assay: Test B flood test rice; type: in vivo, Oryza sativa
In short: as §2

[15] = system: sugar beet; assay: Test B pre/postemergence sugar beet; type: in vivo, Beta vulgaris
In short: as §1

[16] = system: blackgrass; assay: Test B pre/postemergence blackgrass; type: in vivo, Alopecurus myosuroides
In short: as §1

[17] = Preemergence, Rate 62 g/ha, scale of 0 to 10 where 0 is no effect and 10 is complete control
[18] = Preemergence, Rate 125 g/ha, 0 is no effect, 10 is complete control
[19] = Preemergence, Rate 250 g/ha, scale 0 to 10, 0 is no effect, 10 is complete control
[20] = Preemergence, Rate 500 g/ha, scale of 0 to 10 where 0 is no effect and 10 is complete control
[21] = Rate 62 g/ha, Postemergence, scale of 0 to 10 where 0 is no effect and 10 is complete control
[22] = Rate 125 g/ha, Postemergence, scale 0 to 10
[23] = Rate 500 g/ha, Postemergence, scale 0 to 10
[24] = Rate 62 g/ha, headed Pre-emergence (flood test species), scale 0 to 10 (0 no effect, 10 complete control)
[25] = Rate 125 g/ha, Pre-emergence, flood test species, scale 0 to 10 where 0 is no effect and 10 is complete control
[26] = Rate 250 g/ha, Pre-emergence, flood-test species, scale 0 to 10, 0 is no effect, 10 is complete control
[27] = Rate 500 g/ha, Pre-emergence, flood test species, scale 0 to 10 (0 no effect, 10 complete control)

CC(C)N(C(=O)n1oc(=O)n(Cc2ccco2)c1=O)c1ccc(F)cc1 [Compound 207]
Corn plant response rating [1, 17]: 0
Corn plant response rating (0 to 10 scale) [1, 18]: 0
Corn plant response rating [1, 19]: 0
Plant response rating, Corn [1, 20]: 0
Corn plant response rating [1, 21]: 0
Corn plant response rating [1, 22]: 0
Plant response rating (0 to 10; 0 is no effect, 10 is complete control), Corn ([1]; Rate 250 g/ha, Postemergence): 0
Corn plant response rating [1, 23]: 0
Rape plant response rating [2, 17]: 0
Rape plant response rating (0 to 10 scale) [2, 18]: 0
Rape plant response rating [2, 19]: 0
Plant response rating, Rape [2, 20]: 2
Rape plant response rating [2, 21]: 0
Rape plant response rating [2, 22]: 0
Plant response rating (0 to 10; 0 is no effect, 10 is complete control), Rape ([2]; Rate 250 g/ha, Postemergence): 0
Rape plant response rating [2, 23]: 2
Nutsedge plant response rating [3, 17]: 0
Nutsedge plant response rating (0 to 10 scale) [3, 18]: 0
Nutsedge plant response rating [3, 19]: 0
Plant response rating, Nutsedge [3, 20]: 0
Nutsedge plant response rating [3, 21]: 0
Nutsedge plant response rating [3, 22]: 0
Plant response rating (0 to 10; 0 is no effect, 10 is complete control), Nutsedge ([3]; Rate 250 g/ha, Postemergence): 0
Nutsedge plant response rating [3, 23]: 0
Giant foxtail plant response rating [4, 17]: 3
Giant foxtail plant response rating (0 to 10 scale) [4, 18]: 6
Giant foxtail plant response rating [4, 19]: 9
Plant response rating, Giant foxtail [4, 20]: 10
Giant foxtail plant response rating [4, 21]: 0
Giant foxtail plant response rating [4, 22]: 0
Plant response rating (0 to 10; 0 is no effect, 10 is complete control), Giant foxtail ([4]; Rate 250 g/ha, Postemergence): 1
Giant foxtail plant response rating [4, 23]: 2
Bedstraw plant response rating [5, 17]: 0
Bedstraw plant response rating (0 to 10 scale) [5, 18]: 0
Bedstraw plant response rating [5, 19]: 0
Plant response rating, Bedstraw [5, 20]: 0
Bedstraw plant response rating [5, 21]: 0
Bedstraw plant response rating [5, 22]: 0
Plant response rating (0 to 10; 0 is no effect, 10 is complete control), Bedstraw ([5]; Rate 250 g/ha, Postemergence): 5
Bedstraw plant response rating [5, 23]: 5
Soybean plant response rating [6, 17]: 0
Soybean plant response rating (0 to 10 scale) [6, 18]: 0
Soybean plant response rating [6, 19]: 0
Plant response rating, Soybean [6, 20]: 0
Soybean plant response rating [6, 21]: 1
Soybean plant response rating [6, 22]: 2
Plant response rating (0 to 10; 0 is no effect, 10 is complete control), Soybean ([6]; Rate 250 g/ha, Postemergence): 2
Soybean plant response rating [6, 23]: 5
Ducksalad plant response rating [7, 24]: 0
Ducksalad plant response rating [7, 25]: 0
Ducksalad plant response rating [7, 26]: 0
Ducksalad plant response rating [7, 27]: 2
Redroot pigweed plant response rating [8, 17]: 0
Redroot pigweed plant response rating (0 to 10 scale) [8, 18]: 0
Redroot pigweed plant response rating [8, 19]: 2
Plant response rating, Redroot pigweed [8, 20]: 8
Redroot pigweed plant response rating [8, 21]: 0
Redroot pigweed plant response rating [8, 22]: 0
Plant response rating (0 to 10; 0 is no effect, 10 is complete control), Redroot pigweed ([8]; Rate 250 g/ha, Postemergence): 0
Redroot pigweed plant response rating [8, 23]: 0
B. signalgrass plant response rating [9, 17]: 0
B. signalgrass plant response rating (0 to 10 scale) [9, 18]: 0
B. signalgrass plant response rating [9, 19]: 0
Plant response rating, B. signalgrass [9, 20]: 0
B. signalgrass plant response rating [9, 21]: 0
B. signalgrass plant response rating ([9]; Rate 125 g/ha, Postemergence, scale 0 (no effect) to 10 (complete control)): 0
Plant response rating, B. signalgrass ([9]; Rate 250 g/ha, Postemergence, scale 0 to 10, 0 is no effect, 10 is complete control): 0
B. signalgrass plant response rating ([9]; Rate 500 g/ha, Postemergence, scale 0 to 10, 0 no effect, 10 complete control): 0
Barnyardgrass plant response rating [10, 24]: 0
Barnyardgrass plant response rating [10, 25]: 0
Barnyardgrass plant response rating [10, 26]: 2
Barnyardgrass plant response rating [10, 27]: 7
S. Flatsedge plant response rating [11, 24]: 0
S. Flatsedge plant response rating [11, 25]: 0
S. Flatsedge plant response rating [11, 26]: 0
S. Flatsedge plant response rating [11, 27]: 0
Velvetleaf plant response rating [12, 17]: 0
Velvetleaf plant response rating [12, 19]: 0
Plant response rating, Velvetleaf [12, 20]: 5
Velvetleaf plant response rating [12, 21]: 0
Velvetleaf plant response rating [12, 22]: 1
Plant response rating (0 to 10; 0 is no effect, 10 is complete control), Velvetleaf ([12]; Rate 250 g/ha, Postemergence): 1
Morningglory plant response rating [13, 17]: 0
Morningglory plant response rating (0 to 10 scale) [13, 18]: 0
Morningglory plant response rating [13, 19]: 0
Plant response rating, Morningglory [13, 20]: 0
Morningglory plant response rating [13, 21]: 0
Morningglory plant response rating [13, 22]: 2
Plant response rating (0 to 10; 0 is no effect, 10 is complete control), Morningglory ([13]; Rate 250 g/ha, Postemergence): 2
Morningglory plant response rating [13, 23]: 3
Rice plant response rating [14, 24]: 0
Rice plant response rating [14, 25]: 0
Rice plant response rating [14, 26]: 0
Rice plant response rating [14, 27]: 0
Sugarbeets plant response rating [15, 17]: 0
Sugarbeets plant response rating (0 to 10 scale) [15, 18]: 0
Sugarbeets plant response rating [15, 19]: 0
Plant response rating, Sugarbeets [15, 20]: 0
Sugarbeets plant response rating [15, 21]: 0
Sugarbeets plant response rating [15, 22]: 0
Plant response rating (0 to 10; 0 is no effect, 10 is complete control), Sugarbeets ([15]; Rate 250 g/ha, Postemergence): 0
Sugarbeets plant response rating [15, 23]: 2
Blackgrass plant response rating [16, 17]: 0
Blackgrass plant response rating (0 to 10 scale) [16, 18]: 0
Blackgrass plant response rating [16, 19]: 4
Plant response rating, Blackgrass [16, 20]: 7
Blackgrass plant response rating [16, 21]: 0
Blackgrass plant response rating [16, 22]: 2
Plant response rating (0 to 10; 0 is no effect, 10 is complete control), Blackgrass ([16]; Rate 250 g/ha, Postemergence): 2
Blackgrass plant response rating [16, 23]: 4
